Our source for the logP values is the SangsterLogP compilation.

The nature of the data set: method code SF-AS, from DOI: 10.1002/zfch.19810210618.
In general, logP refers to a log measure of how a compound divides between an organic and an aqueous phase. A lower logP goes with a more hydrophilic compound. Turning to `NNC(=O)Nc1ccccc1O`, the logP was found to be 0.33.

The molecule `NNC(=O)Nc1ccc([N+](=O)[O-])cc1` registered a logP of -0.18.

`NNC(=O)Nc1ccccc1C(=O)O` returned a logP of -0.49.

The molecule `NNC(=O)Nc1ccccc1[N+](=O)[O-]` showed a logP of -0.47.

In turn, `Cc1ccccc1NC(=O)NN` gave a log partition coefficient (logP) of 0.36.

The molecule `COc1ccc(NC(=O)NN)cc1` yielded a logP of 0.17.

Molecule `NNC(=O)Nc1cccc(O)c1` came in with a logP of -0.5.

`NNC(=O)Nc1ccccc1Cl` had a logP of 0.45.

Turning to `NNC(=O)Nc1ccc(Br)cc1`, the lipophilicity (logP) is 1.

In turn, `NNC(=O)Nc1cccc2ccccc12` registered a logP of 0.9.

With `COc1ccccc1NC(=O)NN`, the log partition coefficient (logP) is -0.15.

In the case of `NNC(=O)Nc1cc(Cl)ccc1Cl`, the log partition coefficient (logP) was determined as 1.07.

`NNC(=O)Nc1cccc(C(=O)O)c1` registered a logP of -0.16.

Consider `NNC(=O)Nc1ccc(Cl)cc1`, for which the logP is 0.87.

Molecule `NNC(=O)Nc1ccc(C(=O)O)cc1` gave a log partition coefficient (logP) of -0.21.

Regarding `NNC(=O)Nc1cccc([N+](=O)[O-])c1`, the log partition coefficient (logP) is -0.13.

Turning to `Cc1cccc(NC(=O)NN)c1`, the lipophilicity (logP) worked out at 0.68.

As for `NNC(=O)Nc1ccccc1Br`, the lipophilicity (logP) came out at 0.66.

With `COc1cccc(NC(=O)NN)c1`, the log partition coefficient (logP) turned out to be 0.17.

For the molecule `NNC(=O)Nc1ccc(I)cc1`, the lipophilicity (logP) came to 1.24.

Consider `Cc1ccc(NC(=O)NN)cc1`, for which the lipophilicity (logP) was 0.69.

The molecule `NNC(=O)Nc1cccc(Cl)c1` yielded a log partition coefficient (logP) of 0.83.

As to `NNC(=O)Nc1ccc(O)cc1`, the logP was -0.55.

In turn, `CCOc1ccc(NC(=O)NN)cc1` displayed a log partition coefficient (logP) of 0.53.

As to `NNC(=O)Nc1ccccc1`, the lipophilicity (logP) came to 0.16.

Molecule `NNC(=O)Nc1cccc(Br)c1` yielded a logP of 0.96.
